Key:
ABUTH (Velvetleaf) = experiment: Postemergence herbicidal evaluation; type: in vivo, Abutilon theophrasti
How it was run: (§1)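 Rate range approx. 0.0156–0.500 kg/ha. Foliar application at 40 psi to ~2-week seedlings; surfactant 0.5% TWEEN 20 in 50/50 acetone/water. Evaluation 4–5 wk post-treatment by 0–9 visual injury score, means of replicate tests.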

[1] = test system: CHEAL (Lambsquarters, Common); experiment: Postemergence herbicidal evaluation; type: in vivo, Chenopodium album
How it was run: as §1

[2] = test system: IPOHE (Morningglory, Ivyleaf); experiment: Postemergence herbicidal evaluation; type: in vivo, Ipomoea hederacea
How it was run: as §1

ECHCG (Barnyardgrass) = experiment: Postemergence herbicidal evaluation; type: in vivo, Echinochloa crus-galli
How it was run: as §1

SETVI (Foxtail, Green) = experiment: Postemergence herbicidal evaluation; type: in vivo, Setaria viridis
How it was run: as §1

ORYSAT (Rice, Tebonnet) = experiment: Postemergence herbicidal evaluation; type: in vivo, Oryza sativa, (L.) Tebonnet
How it was run: as §1

ZEAMX (Corn, Field) = experiment: Postemergence herbicidal evaluation; type: in vivo, Zea mays
How it was run: as §1

CYPIR (Rice Flatsedge) = experiment: Postemergence weed control under flooded paddy conditions; type: in vivo, Cyperus iria; details: postemergence weeds, 3-4 weeks after treatment
How it was run: (§2)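 Containers holding 3–5 cm weeds and rice at 1.5–2.5 leaves are flooded to 1.5–3 cm above soil. Compound in 50/50 v/v aqueous/acetone is then added directly to the water, about 0.0313–0.500 kg/ha. Plants are kept in the greenhouse and rated 0–9 visually at 3–4 weeks.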

CYPSE (Flatsedge) = experiment: as above; type: in vivo, Cyperus serotinus; details: postemergence weeds, 3-4 weeks after treatment
How it was run: as §2

Substance: 2-{{2-Chloro-5-[3,6-dihydro-3-methyl-2,6-dioxo-4-(trifluoromethyl)-1(2H)-pyrimidinyl]-4-fluoro-phenyl}imino}-4-oxo-3,5-thiazolidenediacetic acid, 3-ethyl (2-propynyl) ester, (2:1) mixture with di-2-propynyl ester [Compound 58]
- Postemergence herbicidal rating ABUTH (ABUTH (Velvetleaf); Rate 0.0158 kg/ha): 9.0
- Postemergence herbicidal rating ABUTH (ABUTH (Velvetleaf); Rate 0.0315 kg/ha): 9.0
- Postemergence herbicidal rating ABUTH (ABUTH (Velvetleaf); Rate 0.0630 kg/ha): 9.0
- Postemergence herbicidal rating CHEAL ([1]; Rate 0.0158 kg/ha): 9.0
- Postemergence herbicidal rating CHEAL ([1]; Rate 0.0315 kg/ha): 9.0
- Postemergence herbicidal rating CHEAL ([1]; Rate 0.0630 kg/ha): 9.0
- Postemergence herbicidal rating IPOHE ([2]; Rate 0.0158 kg/ha): 9.0
- Postemergence herbicidal rating IPOHE ([2]; Rate 0.0315 kg/ha): 9.0
- Postemergence herbicidal rating IPOHE ([2]; Rate 0.0630 kg/ha): 9.0
- Postemergence herbicidal rating ECHCG (ECHCG (Barnyardgrass); Rate 0.0158 kg/ha): 7.0
- Postemergence herbicidal rating ECHCG (ECHCG (Barnyardgrass); Rate 0.0315 kg/ha): 7.0
- Postemergence herbicidal rating ECHCG (ECHCG (Barnyardgrass); Rate 0.0630 kg/ha): 9.0
- Postemergence herbicidal rating SETVI (SETVI (Foxtail, Green); Rate 0.0158 kg/ha): 9.0
- Postemergence herbicidal rating SETVI (SETVI (Foxtail, Green); Rate 0.0315 kg/ha): 9.0
- Postemergence herbicidal rating SETVI (SETVI (Foxtail, Green); Rate 0.0630 kg/ha): 9.0
- Postemergence herbicidal rating ORYSAT (ORYSAT (Rice, Tebonnet); Rate 0.0158 kg/ha): 5.5
- Postemergence herbicidal rating ORYSAT (ORYSAT (Rice, Tebonnet); Rate 0.0315 kg/ha): 5.5
- Postemergence herbicidal rating ORYSAT (ORYSAT (Rice, Tebonnet); Rate 0.0630 kg/ha): 6.0
- Postemergence herbicidal rating ZEAMX (ZEAMX (Corn, Field); Rate 0.0158 kg/ha): 7.0
- Postemergence herbicidal rating ZEAMX (ZEAMX (Corn, Field); Rate 0.0315 kg/ha): 7.0
- Postemergence herbicidal rating ZEAMX (ZEAMX (Corn, Field); Rate 0.0630 kg/ha): 8.0
- Herbicidal rating CYPIR (CYPIR (Rice Flatsedge); rate 0.0313 kg/ha): 0.0
- Herbicidal rating CYPIR (CYPIR (Rice Flatsedge); rate 0.0625 kg/ha): 0.0
- Herbicidal rating CYPIR (CYPIR (Rice Flatsedge); rate 0.1250 kg/ha): 2.0
- Herbicidal rating CYPIR (CYPIR (Rice Flatsedge); rate 0.2500 kg/ha): 3.0
- Herbicidal rating CYPSE (CYPSE (Flatsedge); rate 0.0313 kg/ha): 5.0
- Herbicidal rating CYPSE (CYPSE (Flatsedge); rate 0.0625 kg/ha): 5.0
- Herbicidal rating CYPSE (CYPSE (Flatsedge); rate 0.1250 kg/ha): 5.0
- Herbicidal rating CYPSE (CYPSE (Flatsedge); rate 0.2500 kg/ha): 5.0

Reference: US20020137929A1, “1 - (3-heterocyclylphenyl) isothiourea, -isourea, -guanidine and -amidine herbicidal agents” (Intellectual Property Department, BASF Aktiengesellschaft, priority 1998, published 2002)
